Assays:
5-HT1A = molecular target: T1, 5-HT1A (Homo sapiens, UniProt P08908); assay: 5HT1A Radioligand Receptor Binding Assay ([3H]-8-OH-DPAT, CHO cell membranes); parameters: expressed in transfected cells; host or cells: CHO cells; details: CHO membranes, human 5-HT1A
T1 sequence (P08908 1-422): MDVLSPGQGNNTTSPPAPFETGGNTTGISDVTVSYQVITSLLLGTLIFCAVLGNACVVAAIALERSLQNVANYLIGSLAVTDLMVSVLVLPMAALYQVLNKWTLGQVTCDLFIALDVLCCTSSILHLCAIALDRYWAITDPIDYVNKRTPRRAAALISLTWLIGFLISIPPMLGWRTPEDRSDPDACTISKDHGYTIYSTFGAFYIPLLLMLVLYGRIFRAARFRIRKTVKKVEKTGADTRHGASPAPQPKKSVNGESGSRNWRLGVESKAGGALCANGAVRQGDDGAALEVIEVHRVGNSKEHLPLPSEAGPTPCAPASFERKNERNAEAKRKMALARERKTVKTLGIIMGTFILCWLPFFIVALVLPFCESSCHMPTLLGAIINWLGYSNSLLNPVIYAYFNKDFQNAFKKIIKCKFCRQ
How it was run: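 CHO-cell membranes expressing human 5-HT1A incubated with [3H]-8-OH-DPAT (0.6-0.7 nM) for 60 minutes at 27° C, filtered and scintillation counted; non-specific binding defined with 10^−5 M 5-HT. Compounds tested singly at 10^−7 M as % of control specific binding; IC50 from one-site nonlinear regression.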

D4 human receptors = molecular target: T2, D4 human receptors (Homo sapiens, UniProt P21917); assay: D4 Radioligand Receptor Binding Assay ([3H] YM-09151-2, CHO cell membranes); details: compound 10^−7 M, singlicate, [3H] YM-09151-2 0.15-0.25 nM
T2 construct: expressed in transfected cells; host or cells: CHO cells
T2 sequence (P21917 1-419): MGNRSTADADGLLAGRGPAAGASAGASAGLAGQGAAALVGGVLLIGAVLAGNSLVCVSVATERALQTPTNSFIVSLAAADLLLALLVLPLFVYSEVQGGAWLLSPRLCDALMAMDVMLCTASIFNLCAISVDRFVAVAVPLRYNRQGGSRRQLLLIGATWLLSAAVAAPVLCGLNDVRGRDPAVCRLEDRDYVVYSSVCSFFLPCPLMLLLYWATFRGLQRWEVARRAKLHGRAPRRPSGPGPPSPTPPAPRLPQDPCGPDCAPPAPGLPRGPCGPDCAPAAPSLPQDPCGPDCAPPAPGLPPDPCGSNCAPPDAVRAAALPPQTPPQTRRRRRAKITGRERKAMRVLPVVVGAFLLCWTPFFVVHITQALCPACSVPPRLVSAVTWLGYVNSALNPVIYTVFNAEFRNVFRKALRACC
How it was run: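 Membranes from CHO cells expressing human D4 receptor incubated with [3H] YM-09151-2 (0.15-0.25 nM) and compound at one concentration (10^−7 M, singlicate) for 120 min at 27° C, then filtered.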

Q: Which IC50 (5-HT1A; [3H]-8-OH-DPAT, read-out: 5-HT1A Receptor Binding IC50) does the source give for CCNC(=O)OCCn1c(=O)n(CCN2CCN(c3cccc(C)c3C)CC2)c2ccccc21 [Compound 215] here?
A: 850 pM

Q: And the inhibition at 0.1 µM (5-HT1A; compound 10^−7 M, singlicate, [3H]-8-OH-DPAT 0.6-0.7 nM)?
A: 98%

Q: And the inhibition at 0.1 µM (D4 human receptors)?
A: 48%

Reference: patent publication US6521623B1, “N,N'-disubstituted benzimidazolone derivatives with affinity at the serotonin and dopamine receptors” (Boehringer Ingelheim Pharma KG, priority 2000, dated 2003)
